Earlier results in US20220347165A1, “EFFERVESCENT ORAL COMPOSITION” (NICOVENTURES TRADING LIMITED, priority 2021, published 2022).

What was measured:
[1] = when isolated; isomerizes to trans-bixin

Row | Compound | solubility in water | chemical stability [1] | solubility in fats and alcohols (fats and alcohols)
1 | CC(/C=C/C=C(C)/C=C/C(=O)O)=C\C=C\C=C(C)\C=C\C=C(C)\C=C\C(=O)O (stereo in doubt) [norbixin, (2E,4E,6E,8E,10E,12E,14E,16E,18E)-4,8,13,17-tetramethylicosa-2,4,6,8,10,12,14,16,18-nonaenedioic acid] | water soluble | – | –
2 | COC(=O)/C=C/C(C)=C\C=C\C(C)=C\C=C\C=C(C)\C=C\C=C(C)\C=C\C(=O)O [bixin, (2E,4E,6E,8E,10E,12E,14E,16Z,18E)-20-methoxy-4,8,13,17-tetramethyl-20-oxoicosa-2,4,6,8,10,12,14,16,18-nonaenoic acid] | insoluble in water | chemically unstable when isolated | soluble in fats and alcohols
